Results as given in patent US11999727B2 (Tango Therapeutics, Inc., priority 2020, dated 2024).

Assays:
[1] = target: T1, PRMT5 (Homo sapiens, UniProt O14744); assay: PRMT5 biochemical IC50 assay with MTA as cofactor; conditions: PRMT5, MTA as cofactor; read-out: MTA IC50
T1 construct: purchased Viva (custom protein)

[2] = system: HAP1 MTAP-deleted cell line; assay: SDMA in-cell western assay, HAP1 MTAP-deleted; assay type: cell-based; conditions: for IC50: Homo sapiens, HAP1, SDMA in-cell western, HAP1 MTAP-deleted; for MTAP intact/deleted ratio: IC50 ratio HAP1 MTAP-intact / HAP1 MTAP-deleted, SDMA in-cell western
How it was run: (§1)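 IC50 values come from SDMA signal quantified by in-cell western in two HAP1 lines, one with native MTAP levels and one lacking MTAP.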

[3] = system: HAP1 MTAP-deleted cell line; assay: Viability assay, MTAP-deleted cell line; assay type: cell-based; conditions: Homo sapiens, read-out: HAP1 MTAP deleted viability
Source text: Table 1 additionally indicates IC50 values in a viability assay for the MTAP-deleted cell line (column 10), indicating the effect of treatment with compound on cell survival.

[4] = target: T1, PRMT5; assay: PRMT5 biochemical IC50 assay with no cofactor; conditions: PRMT5, no cofactor
Source text: Table 1 indicates IC50 values (μM) against PRMT5 for exemplary compounds in the presence of SAM as cofactor, with no cofactor, and with MTA as cofactor, respectively (columns 4-6). […] Ki values can be calculated from the IC50 values as described in the Examples section. As detailed in the Examples section, for the assay performed in the presence of SAM, IC50=Ki×1.5 (Ki=IC50/1.5).

[5] = target: T1, PRMT5; assay: PRMT5 biochemical IC50 assay with SAM as cofactor; conditions: PRMT5, SAM as cofactor; read-out: SAM IC50
[6] = system: HAP1 MTAP-intact cell line; assay: SDMA in-cell western assay, HAP1 MTAP-intact; assay type: cell-based; conditions: Homo sapiens, HAP1, SDMA in-cell western, HAP1 MTAP-intact; read-out: MTAP HAP1 intact IC50
How it was run: as §1

[7] = read-out: HAP1 MTAP deleted IC50
[8] = HAP1, viability assay, MTAP-deleted cell line
[9] = read-out: HAP 1 MTAP deleted IC50
[10] = HAP1, viability, HAP1 MTAP-deleted cell line
[11] = read-out: No Cofactor/ rel IC50
[12] = HAP1, viability assay, HAP1 MTAP-deleted
[13] = HAP1, viability IC50, MTAP-deleted cell line

T1 sequence (O14744 whole entry): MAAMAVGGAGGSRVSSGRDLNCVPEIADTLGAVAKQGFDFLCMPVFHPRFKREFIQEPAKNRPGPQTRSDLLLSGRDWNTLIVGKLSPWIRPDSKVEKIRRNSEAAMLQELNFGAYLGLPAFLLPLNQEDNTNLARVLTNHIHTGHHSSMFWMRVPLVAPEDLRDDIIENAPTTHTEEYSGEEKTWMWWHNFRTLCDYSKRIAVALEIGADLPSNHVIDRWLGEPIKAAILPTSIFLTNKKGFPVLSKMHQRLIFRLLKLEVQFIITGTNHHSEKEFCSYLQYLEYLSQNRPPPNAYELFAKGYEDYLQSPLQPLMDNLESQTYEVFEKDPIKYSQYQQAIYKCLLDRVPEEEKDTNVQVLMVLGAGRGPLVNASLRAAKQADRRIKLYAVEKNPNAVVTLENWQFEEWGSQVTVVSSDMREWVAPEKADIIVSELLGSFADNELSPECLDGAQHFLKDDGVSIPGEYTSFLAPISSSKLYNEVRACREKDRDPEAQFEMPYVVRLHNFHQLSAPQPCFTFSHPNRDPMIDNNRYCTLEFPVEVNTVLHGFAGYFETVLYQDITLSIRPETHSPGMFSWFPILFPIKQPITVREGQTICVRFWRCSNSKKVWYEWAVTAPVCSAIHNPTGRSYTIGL
T1 sequence (Q9BQA1 whole entry partner): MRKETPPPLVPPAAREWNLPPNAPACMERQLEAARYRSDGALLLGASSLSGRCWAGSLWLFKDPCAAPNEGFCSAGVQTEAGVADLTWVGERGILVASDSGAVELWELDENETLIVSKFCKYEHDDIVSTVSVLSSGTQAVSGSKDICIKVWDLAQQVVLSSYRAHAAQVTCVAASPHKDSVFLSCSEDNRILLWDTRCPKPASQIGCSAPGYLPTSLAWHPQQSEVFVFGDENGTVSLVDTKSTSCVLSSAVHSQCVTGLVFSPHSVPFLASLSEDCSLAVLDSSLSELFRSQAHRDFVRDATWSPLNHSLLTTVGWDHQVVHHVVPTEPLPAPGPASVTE

Row | IC50 [1] | IC50 [2, 7] | IC50 ([4]; read-out: No Cofactor/rel IC50) | IC50 [5] | IC50 [6] | IC50 [2, 9] | IC50 [4, 11] | Compound | MTAP intact/deleted ratio [2] | IC50 [3, 8] | IC50 [3, 10] | IC50 [3, 12] | IC50 [3, 13]
1 | < 50 nM | < 100 nM | 50 to 500 nM | 50 to 500 nM | > 1000 nM | – | – | Cc1cc(NC(=O)C(=O)N2CCCC[C@H]2c2ccc3[nH]ncc3c2)cnc1N (single isomer, unassigned) [Compound 518] | A (an IC50 ratio greater than or equal to 10 fold) | < 1000 nM | – | – | –
2 | < 50 nM | – | – | 50 to 500 nM | < 100 nM | < 100 nM | < 50 nM | Cc1cc(NC(=O)C(=O)N2C[C@@H](C)CC[C@@H]2c2ccc(N3CCN(C)CC3)cc2)cnc1N (single isomer, unassigned) [Compound 1328] | B (an IC50 ratio greater than or equal to 3 fold but lower than 10 fold) | – | < 1000 nM | – | –
3 | < 50 nM | 100 to 1000 nM | 50 to 500 nM | 50 to 500 nM | > 1000 nM | – | – | C[C@@H]1CC[C@@H](c2cccc(C(F)F)c2)N(C(=O)C(=O)Nc2cncc(C(N)=O)c2)C1 (racemic) [Compound 268, rac-5-{2-[(2R,5S)-2-[3-(Difluoromethyl)phenyl]-5-methylpiperidin-1-yl]-2-oxoacetamido}pyridine-3-carboxamide] | A (an IC50 ratio greater than or equal to 10 fold) | 1000 to 10000 nM | – | – | –
4 | < 50 nM | < 100 nM | < 50 nM | 50 to 500 nM | 100 to 1000 nM | – | – | CNc1ccc([C@@H]2CC[C@@H](C)CN2C(=O)C(=O)Nc2cnc(N)c(C)c2)cn1 (single isomer, unassigned) [Compound 864] | B (an IC50 ratio greater than or equal to 3 fold but lower than 10 fold) | – | – | < 1000 nM | –
5 | > 500 nM | – | – | > 500 nM | > 1000 nM | > 1000 nM | > 500 nM | Cc1cc(NC(=O)C(=O)N2C[C@@H](C)CC[C@@H]2c2ccc(CCN(C)C)cc2)cnc1N (single isomer, unassigned) [Compound 1322] | – | – | > 10000 nM | – | –
6 | < 50 nM | < 100 nM | 50 to 500 nM | 50 to 500 nM | > 1000 nM | – | – | C[C@@H]1CC[C@@H](c2ccc3c(c2)OCO3)N(C(=O)C(=O)Nc2cncc(C(N)=O)c2)C1 (racemic) [Compound 270, rac-5-{2-[(2R,5S)-2-(1,3-Dioxaindan-5-yl)-5-methylpiperidin-1-yl]-2-oxoacetamido}pyridine-3-carboxamide] | A (an IC50 ratio greater than or equal to 10 fold) | 1000 to 10000 nM | – | – | –
7 | < 50 nM | < 100 nM | 50 to 500 nM | 50 to 500 nM | > 1000 nM | – | – | COc1ncc(NC(=O)C(=O)N2C[C@H](C)CC[C@H]2C2CCCC2)cc1C(N)=O (single isomer, unassigned) [Compound 306] | A (an IC50 ratio greater than or equal to 10 fold) | 1000 to 10000 nM | – | – | –
8 | 50 to 500 nM | – | > 500 nM | > 500 nM | > 1000 nM | > 1000 nM | – | NC(=O)c1cncc(NC(=O)C(=O)N2C[C@H](c3cc[nH]n3)CC[C@H]2c2ccccc2)c1 (racemic) [Compound 669, rac-5-(2-oxo-2-((2R,5S)-2-phenyl-5-(1H-pyrazol-5-yl)piperidin-1-yl)acetamido)nicotinamide] | C (an IC50 ratio of less than 3 fold) | – | – | – | > 10000 nM
9 | < 50 nM | < 100 nM | 50 to 500 nM | 50 to 500 nM | > 1000 nM | – | – | C[C@H]1CC[C@H](c2cc3[nH]ncc3s2)N(C(=O)C(=O)Nc2cncc(C(N)=O)c2)C1 (single isomer, unassigned) [Compound 873, 5-(2-(5-methyl-2-(1H-thieno[3,2-c]pyrazol-5-yl)piperidin-1-yl)-2-oxoacetamido)nicotinamide] | A (an IC50 ratio greater than or equal to 10 fold) | – | – | < 1000 nM | –
10 | < 50 nM | – | < 50 nM | 50 to 500 nM | 100 to 1000 nM | < 100 nM | – | Cc1cc(NC(=O)C(=O)N2C[C@@H](C)CC[C@@H]2c2ccc(NS(C)(=O)=O)cc2)cnc1C (single isomer, unassigned) [Compound 621] | A (an IC50 ratio greater than or equal to 10 fold) | – | – | – | 1000 to 10000 nM
11 | > 500 nM | > 1000 nM | > 500 nM | > 500 nM | > 1000 nM | – | – | CC(=O)Nc1ccc([C@H]2CC[C@H](C)CN2C(=O)C(=O)Nc2cnc(N)c(C)c2)cc1 (single isomer, unassigned) [Compound 523] | C (an IC50 ratio of less than 3 fold) | > 10000 nM | – | – | –
12 | 50 to 500 nM | – | – | > 500 nM | > 1000 nM | > 1000 nM | 50 to 500 nM | Cc1cncc(NC(=O)C(=O)N2C[C@H](C)CC[C@H]2c2ccc(F)cc2)c1 (racemic) [Compound 89, rac-2-((2R,5S)-2-(4-fluorophenyl)-5-methylpiperidin-1-yl)-N-(5-methylpyridin-3-yl)-2-oxoacetamide] | C (an IC50 ratio of less than 3 fold) | > 10000 nM | – | – | –
13 | 50 to 500 nM | 100 to 1000 nM | 50 to 500 nM | > 500 nM | > 1000 nM | – | – | C[C@@H]1CC[C@@H](c2ccc(F)cc2)N(C(=O)C(=O)Nc2cnc(N)c(C(F)(F)F)c2)C1 (racemic) [Compound 872, N-[6-Amino-5-(trifluoromethyl)-3-pyridyl]-2-[(2S,5R)-2-(4-fluorophenyl)-5-methyl-1-piperidyl]-2-oxo-acetamide] | A (an IC50 ratio greater than or equal to 10 fold) | – | – | 1000 to 10000 nM | –
14 | > 500 nM | > 1000 nM | > 500 nM | > 500 nM | > 1000 nM | – | – | C[C@@H]1CC[C@@H](c2cc(Cl)cc(Cl)c2)N(C(=O)C(=O)Nc2cncc(C(N)=O)c2)C1 (single isomer, unassigned) [Compound 490] | C (an IC50 ratio of less than 3 fold) | > 10000 nM | – | – | –
15 | < 50 nM | – | – | < 50 nM | 100 to 1000 nM | < 100 nM | < 50 nM | Cc1cc(NC(=O)C(=O)N2C[C@@H](C)CC[C@@H]2c2cccc(C3CCN(C)CC3)c2)cnc1N (single isomer, unassigned) [Compound 1253] | A (an IC50 ratio greater than or equal to 10 fold) | – | < 1000 nM | – | –
16 | < 50 nM | – | – | < 50 nM | < 100 nM | < 100 nM | < 50 nM | COc1ncc(NC(=O)C(=O)N2C[C@@H](C)CC[C@@H]2c2ccc3sc([C@H]4CCCN(C)C4)nc3c2)cc1C(N)=O [Compound 1359, 2-methoxy-5-(2-((2R,5S)-5-methyl-2-(2-((S)-1-methylpiperidin-3-yl)benzo[d]thiazol-5-yl)piperidin-1-yl)-2-oxoacetamido)nicotinamide] | A (an IC50 ratio greater than or equal to 10 fold) | – | < 1000 nM | – | –
17 | > 500 nM | 100 to 1000 nM | > 500 nM | > 500 nM | > 1000 nM | – | – | CCc1cc(NC(=O)C(=O)N2C[C@H](C)CC[C@H]2c2ccc3[nH]c(=O)ccc3c2)cnc1N (single isomer, unassigned) [Compound 819] | A (an IC50 ratio greater than or equal to 10 fold) | – | – | 1000 to 10000 nM | –
